Laboratory results as given in patent publication US8563580B2, “Flavivirus inhibitors and methods for their use” (Georgetown University, priority 2008, dated 2013).

Experiments:
[1] = tested on: WNV replicon expressing Vero cells; experiment: Replicon inhibition assay (Renilla luciferase), WNV replicon expressing Vero cells; assay type: cell-based, West Nile virus (WNV); details: for WNV replicon inhibition (FIG. 1): 25 μM final concentration, 24 hours, Vero cells; for EC50: West Nile virus, Vero, 24 h
Method: (§1) Baby Hamster Kidney (BHK) and African green monkey kidney epithelial cells (Vero) were cultured in Dulbecco's Modified Eagle Medium (DMEM) (Cellgro®; Mediatech, Inc., Manassas, Va.) supplemented with 10% fetal bovine serum, MEM nonessential amino acid (Cellgro®) (5 ml/liter), and Penicillin-Streptomycin (2.5 ml/liter). Dengue 2 replicon expressing BHK cells and WNV replicon expressing Vero cells were cultured in DMEM as described above containing additionally Geneticin or G418 (Fisher Scientific®, Pittsburgh, Pa.) to maintain the selective pressure of the replicon expressing cells.
(§2) Dengue 2 replicon expressing BHK cells and WNV replicon expressing Vero cells were plated 100 μl into a black 96 well plate (Greiner Bio-One; Monroe, N.C.) with 10^5 cells/ml concentrations. After 6 hours of incubation, 1 μl of each compound diluted in DMSO to 2.5 mM was added into each well to obtain a 25 μM as the final concentration. Cells were incubated at 37° C. in a humidified CO2 (5%) chamber for 24 hours. The media was then removed and the cells are washed with PBS before adding 20 μl of lysis buffer to each well. A Renilla luciferase assay was performed with the addition of 50 μl substrate (Promega Corporation; Madison, Wis.) with a 2 second delay and a 10 second measurement in a Centro LB 960 plate luminescence plate reader (Berthold Technologies; Oak Ridge, Tenn.). The data was analyzed and plotted with GraphPad Prism 5 (GraphPad Software, Inc.; La Jolla, Calif.).
Specifically, the cells were prepared as above and the concentration of the compounds were varied (see Table 2). Renilla luciferase activity was measured as described above 24 hours after the addition of the compounds.

[2] = tested on: Dengue 2 replicon expressing BHK cells; experiment: Replicon inhibition assay (Renilla luciferase), Dengue 2 replicon expressing BHK cells; assay type: cell-based, Dengue virus (DENV2); details: for DENV2 BHK replicon inhibition (FIG. 2): 25 μM final concentration, 24 hours, BHK cells; for EC50: Dengue virus
Method: as §1, §2
Renilla luciferase activity was measured as described above 24 hours after the addition of the compounds.

[3] = Cytotoxicity assay (MTT), naïve Vero cells; assay type: cell-based; details: African green monkey, 18 hours incubation
Method: as §1
(§3) Naïve Vero cells were cultured in the presence of varying concentrations of the Compound 33, Compound 34, and Compound 35 to calculate CC50 values. In the same way, Compound 33, Compound 34, Compound 35, and Compound 36 were tested in BHK cells. Naïve BHK and Vero cells were prepared in 96-well plates as described above at various final concentrations. After 18 hours of incubation, 10 μl of MTT reagent (Chemicon; Temecula, Calif.) is added into each well. The cells were incubated for 2 hours before adding 100 μl of detergent and were read in a spectrophotometer as described in the manufacturer's protocol.

[4] = Cytotoxicity assay (MTT), naïve BHK cells; assay type: cell-based; details: hamster, 18 hours incubation
Method: as §1, §3

WNV protease = experiment: High Throughput Screen (HTS) protease assay; assay type: biochemical, West Nile virus (EG101 strain); details: 100 nl of 5 mg/ml compound in DMSO per 30.1 μl well; substrate Boc-Gly-Lys-Arg-AMC 50 μM; DMSO controls = 100% activity
Method: Procedures for expression and purification of WNV (EG101 strain) were similar to those described elsewhere by Mueller et al., Int. J. Biochem. Cell. Biol., 39: 606-14 (2007). Briefly, E. coli Top10 F′ cells (Invitrogen, Carlsbad, Calif.) were transformed with the protease expression plasmid. Cells were grown at 37° C. until the OD600 was ˜0.5. Cells were then induced with isopropyl-1-thio-β-D-galactopyranoside (American Bioanalytical, Natick, Mass.) (0.5 mM), and incubated for 4 h at 37° C. Cells were harvested by centrifugation (5000×g) for 15 min at 4° C., washed once with a buffer containing 50 mM Tris-HCl, pH 7.5, and 200 mM NaCl, centrifuged at 5000×g for 15 min at 4° C., and stored at -80° C. until used.
Proteases were purified by suspending bacterial pellets in 50 mM Hepes, pH 7.0, 500 mM NaCl, (buffer A) with 0.05 mg/ml lysozyme. Cells were incubated for 30 min on ice after addition of 10% stock solution of Triton X-100 (final concentration of 0.5%). Cells were disrupted by sonication for 2 min and the soluble fraction was collected after centrifugation (15,000×g) for 30 min at 4° C. The soluble fraction was incubated for 1 h at 4° C. with Talon resin (BD Bioscience, San Jose, Calif.) which was pre-equilibrated in buffer A. The affinity resin was centrifuged at (400×g) for 10 min at 4° C., washed three times with buffer A, and packed into a column. Washing of the column was continued with the buffer A containing 10 mM imidazole, followed by elution of the protease with buffer A containing 150 mM imidazole. The protease was concentrated and further purified by Sephadex G-75 gel filtration chromatography. The purified protease fractions were pooled and dialyzed against a buffer containing 50 mM Tris-HCl pH 7.5 and 300 mM NaCl (4×1 L). Aliquots (100 μl) were frozen at −80° C.
The protease assay (100 μl) described by Mueller et al., Int. J. Biochem. Cell. Biol. 39: 606-14 (2007) was adapted for a 384-well plate format (30.1 μl). Microtiter plates were loaded sequentially with 14 μl of the reaction buffer containing 200 mM Tris-HCl, pH 9.5, and 30% glycerol (TG buffer) using an automated Wellmate (Matrix, Hudson, N.H.) and 6 μl of WNV protease (0.05 μM) (as prepared above) in TG buffer containing 15 mM NaCl (3 mM final concentration). Plates were then centrifuged at 1000×g for 3 min at room temperature to mix samples and pool liquids at the bottom of the wells. Inhibitor compounds (100 nl of 5 mg/ml in dimethyl sulfoxide; DMSO) were added to each well in duplicate by a pin-transfer mechanism of a robotic delivery system. The final inhibitor concentrations in the assays varied due to different molecular weights of the compounds from the libraries that were screened. Plates were incubated at room temperature to allow for formation of protease/inhibitor complexes. The fluorogenic substrate, t-butyl-oxycarbonyl(Boc)-Gly-Lys-Arg-7-amino-4-methyl coumarin (AMC) (10 μl in TG buffer; 50 μM final concentration in the reaction mixture), was added using the Wellmate, and the plates were centrifuged for 3 min at 1000×g and incubated at room temperature for 15 min. Fluorescence was measured at excitation and emission wavelengths of 385 nm and 465 nm, respectively, on a Perkin-Elmer (Waltham, Mass.) spectrofluorometer. To validate the assay conditions, aprotinin (bovine pancreatic trypsin inhibitor, BPTI) was used as a positive control. Assay mixtures containing DMSO were used as negative controls. The average of fluorescence values in duplicate wells for a given compound was used to determine the percent activity by taking the values obtained with DMSO controls as 100%. Compounds 1-11, 18-32, and 37-101 above were identified. […] Compounds 12-17 are compounds related to those identified in the HTS screen that also show significant WNV protease inhibition, i.e., >95%.

CCN(CC)Cc1cc(Cl)c2cccnc2c1O [Compound 35]
WNV replicon inhibition (FIG. 1) [1]: inhibitory | EC50 [1]: 3.38 µM | DENV2 BHK replicon inhibition (FIG. 2) [2]: inhibitory | EC50 ([2]; BHK, 24 h): 2.35 µM | CC50 at 18 h [3]: 60.9 µM | CC50 at 18 h [4]: 70.1 µM

Oc1c(C(Nc2nc3ccccc3s2)c2ccccc2)ccc2cccnc12 (stereo not drawn) [Compound 13]
% Inhibition (reduction in protease activity) (WNV protease): >95% | EC50 ([2]; DENV2, BHK): ~7.5 µM

Oc1c(CN2CCOCC2)cc(Cl)c2cccnc12 [Compound 34]
WNV replicon inhibition (FIG. 1) [1]: inhibitory | EC50 [1]: 14.3 µM | DENV2 BHK replicon inhibition (FIG. 2) [2]: inhibitory | EC50 ([2]; BHK, 24 h): 35 µM | CC50 at 18 h [3]: 355 µM | CC50 at 18 h [4]: 170 µM

Oc1c(CN2CCOCC2)cc(Cl)c2c1NCCC2 [Compound 36]
DENV2 BHK replicon inhibition (FIG. 2) [2]: inhibitory | EC50 ([2]; BHK, 24 h): 63.1 µM | CC50 at 18 h [4]: 220 µM

Oc1c(CN2CCOCC2)ccc2cccnc12 [Compound 33]
WNV replicon inhibition (FIG. 1) [1]: inhibitory | EC50 [1]: 7.96 µM | DENV2 BHK replicon inhibition (FIG. 2) [2]: inhibitory | EC50 ([2]; BHK, 24 h): 10.6 µM

Oc1c(C(Nc2nccs2)c2cccc(OCc3ccccc3)c2)ccc2cccnc12 (stereo not drawn) [Compound 17]
% Inhibition (reduction in protease activity) (WNV protease): >95% | EC50 ([2]; DENV2, BHK): ~8.3 µM

N#CCC(=O)Nc1ccc(Oc2ccccc2)cc1 [Compound 97]
% Inhibition (reduction in protease activity) (WNV protease): 51%

CCn1c2ccccc2c2nnc(SCC(=O)Nc3ccc(S(N)(=O)=O)cc3)nc21 [Compound 86]
% Inhibition (reduction in protease activity) (WNV protease): 54%

Cc1ccc(/N=C2\NC(=O)C(CC(=O)Nc3ccc(OC(F)(F)F)cc3)S2)cc1 (stereo not drawn) [Compound 81]
% Inhibition (reduction in protease activity) (WNV protease): 55%

Oc1c(C(c2ccc(Cl)cc2)N2CCOCC2)cc(Cl)c2cccnc12 (stereo not drawn) [Compound 11]
% Inhibition (reduction in protease activity) (WNV protease): 65%

CCc1ccccc1NC(=O)Cn1cccc1C1=NC(c2ccccc2)CO1 (stereo not drawn) [Compound 100]
% Inhibition (reduction in protease activity) (WNV protease): 50%

Cc1cc(NC(c2cccc(Br)c2)c2ccc3cccnc3c2O)no1 (stereo not drawn) [Compound 10]
% Inhibition (reduction in protease activity) (WNV protease): 70%

O=C(c1conc1-c1ccccc1)n1cccc1 [Compound 40]
% Inhibition (reduction in protease activity) (WNV protease): 56%

COc1ccc(NC(=O)C(NC(=O)Cc2cccs2)c2ccccc2)cc1 (stereo not drawn) [Compound 78]
% Inhibition (reduction in protease activity) (WNV protease): 56%

COc1ccc(OCC(=O)OCCN2C(=O)c3ccccc3C2=O)cc1 [Compound 39]
% Inhibition (reduction in protease activity) (WNV protease): 57%

CCN(CC)S(=O)(=O)c1ccc2oc(C(=O)Nc3cccc(OC)c3)c(C)c2c1 [Compound 64]
% Inhibition (reduction in protease activity) (WNV protease): 65%

O=C(CCC(=O)c1ccc(Cl)cc1)Nc1c(F)cccc1F [Compound 71]
% Inhibition (reduction in protease activity) (WNV protease): 59%

O=C(Nc1nc(SCc2ccc(F)cc2)ns1)c1cccs1 [Compound 99]
% Inhibition (reduction in protease activity) (WNV protease): 50%

O=C1c2ccccc2C(O)(Cc2ccccc2)N1c1ccc2c(c1)OCO2 (stereo not drawn) [Compound 42]
% Inhibition (reduction in protease activity) (WNV protease): 54%

O=C(/C=C/c1ccccc1)Nc1c2c(nn1-c1ccccc1)CSC2 [Compound 74]
% Inhibition (reduction in protease activity) (WNV protease): 57%

COC(=O)c1ccc(C(Nc2ccccn2)c2ccc3ccc(C)nc3c2O)cc1 (stereo not drawn) [Compound 3]
% Inhibition (reduction in protease activity) (WNV protease): 84.5%

CC(/C=C1\SC(=S)N(CC(=O)Nc2cccnc2)C1=O)=C\c1ccccc1 [Compound 22]
% Inhibition (reduction in protease activity) (WNV protease): 72.5%

CC1CCN(S(=O)(=O)c2ccc(NC(=O)/C=C/c3ccco3)cc2)CC1 [Compound 62]
% Inhibition (reduction in protease activity) (WNV protease): 72%

Cc1nnc(NC(=O)CSc2cn(Cc3ccccc3)c3ccccc23)s1 [Compound 84]
% Inhibition (reduction in protease activity) (WNV protease): 54%

CC(C)(C)C1CCC(C(=O)OCC(=O)Nc2ccc(C(N)=O)cc2)CC1 (stereo not drawn) [Compound 65]
% Inhibition (reduction in protease activity) (WNV protease): 63%

O=C(CCCN1C(=O)/C(=C/C=C/c2ccccc2)SC1=S)Nc1cccc(O)c1 [Compound 28]
% Inhibition (reduction in protease activity) (WNV protease): 63%

O=c1[nH]c2ccccc2c(O)c1-c1nc2ccccc2s1 [Compound 48]
% Inhibition (reduction in protease activity) (WNV protease): 67%

CCOc1cc2c(cc1OCC)C1C(C(=O)NCCCN3CCN(C)CC3)c3ccccc3C(=O)N1CC2 (stereo not drawn) [Compound 61]
% Inhibition (reduction in protease activity) (WNV protease): 51%

COc1ccc(NC(=O)c2c(N)sc(-c3ccccc3)c2C)cc1 [Compound 63]
% Inhibition (reduction in protease activity) (WNV protease): 65%

Oc1ccccc1C(Nc1nc2ccccc2s1)c1ccc2cccnc2c1O (stereo not drawn) [Compound 16]
% Inhibition (reduction in protease activity) (WNV protease): >95% | EC50 ([2]; DENV2, BHK): ~4.5 µM

O=C1Nc2ccccc2/C1=C/c1ccccc1N1CCOCC1 [Compound 44]
% Inhibition (reduction in protease activity) (WNV protease): 52%

Cc1ccc2ccc(C(Nc3ccccn3)c3ccc4c(c3)OCO4)c(O)c2n1 (stereo not drawn) [Compound 4]
% Inhibition (reduction in protease activity) (WNV protease): 83%

CN(C)c1ccc(C(Nc2nccs2)c2ccc3cccnc3c2O)cc1 (stereo not drawn) [Compound 6]
% Inhibition (reduction in protease activity) (WNV protease): 76%

O=C(CCCN1C(=O)/C(=C/C=C/c2ccccc2)SC1=S)Nc1cccc(F)c1 [Compound 27]
% Inhibition (reduction in protease activity) (WNV protease): 66%

CCN1C(=O)/C(=C/c2ccc(NC(=O)c3ccccc3Br)cc2)SC1=S [Compound 18]
% Inhibition (reduction in protease activity) (WNV protease): 83.5%

Cc1ccc(-n2nc3c(c2NC(=O)CCC2CCCC2)CSC3)cc1 [Compound 101]
% Inhibition (reduction in protease activity) (WNV protease): 50%
